The results in this text go back to the Deep4Chem optical property database.

This data set in a line: solvent given as SMILES.

For the setting “in C1CCOC1”, `c1ccc2c(c1)c1ccccc1n2-c1ccc(-c2ccn3nc(-c4ccc(-n5c6ccccc6c6ccccc65)cc4)nc3c2)cc1` returned an absorption maximum of 342 nm.
For the compound `CN(C)c1nc(N)nc2c1nc(C#N)n2Cc1ccccc1`, the absorption maximum was 334 nm (in C1COCCO1), 326 nm (in CC#N), 327 nm (in CO) and 324 nm (in ClCCl).
In the case of `CCCCOc1c(C=C2N(C)c3ccccc3C2(C)C)c(=O)c1=S`, under “in CCO”, the absorption maximum is on record as 500 nm.
In the case of `CN(C)c1ccc(/C=C/c2ccc(-c3nnc(-c4ccc(-c5cc6ccccc6s5)cc4)o3)cc2)cc1`, the absorption maximum is, setting by setting: (in CC#N) 334 nm; (in CC(C)=O) 337 nm; (in CCCCCCCC) 334 nm; (in CCCCCCCCCCO) 344 nm; (in CCCCCCCCO) 343 nm; (in CCCCCO) 341 nm. Moreover, the absorption maximum is 341 nm (in CCCO), 338 nm (in CN(C)C=O), 335 nm (in CO) and 340 nm (in CS(C)=O).
For the setting “in CN(C)C=O”, `CCCCCCCCCCCCCCCCCCN1C(=O)c2ccc3c4ccc5c6c(ccc(c7ccc(c2c37)C1=O)c64)C(=O)NC5=O` registered an absorption maximum of 523 nm.
Turning to `COc1ccc(-c2csc(/C(C#N)=N\Nc3ccc(C#N)cc3)n2)cc1`, the absorption maximum amounted to 401 nm (in CC#N); 403 nm (in CCO); 481 nm (in CN(C)C=O); 405 nm (in Cc1ccccc1); 404 nm (in ClCCl).
With `Cc1cc(N2c3ccccc3C(C)(C)c3ccccc32)ccc1-c1cc(-c2ccc(N3c4ccccc4C(C)(C)c4ccccc43)cc2C)ncn1`, under “in Cc1ccccc1”, the absorption maximum was determined as 375.94 nm.
For `COc1ccc(-c2ccc(-c3ccccc3)cc2)cc1`, the absorption maximum (in C1CCCCC1) came out at 291 nm.
Under “in Cc1ccccc1”, `CC1(C)c2ccccc2-c2cc3c4ccccc4n(-c4ccc(-c5nc(-c6ccccc6)nc(-c6ccccc6)n5)cc4)c3cc21` displayed an absorption maximum of 362 nm.
Under “in C1CCOC1”, `CCOC(=O)c1ccc(C2=C(c3ccccc3)c3oc4ccccc4[n+]3[B-](F)(F)O2)cc1` yielded an absorption maximum of 350 nm.
Take `CCOC(=O)C1=C(C(=O)OCC)C2(c3ccccc3-c3c(Br)cc(Br)cc32)C2(/C=C/c3ccc(Cl)cc3)c3cc(OC)c(OC)cc3CCN12` (configuration not stated): the absorption maximum (in ClCCl) is recorded as 329 nm.
`CC1=c2cc3c(C)c4n(c3cc2=[N+]2C1=Cc1c3ccccc3c(C)n1[B-]2(F)F)[B-](F)(F)[N+]1=C(C)c2ccccc2C1=C4` had an absorption maximum (in ClC(Cl)Cl) of 775 nm.
Compound `COc1ccc(C#Cc2c3cc4ccccc4cc3c(C#Cc3ccc(OC)cc3)c3cc4sc(C)cc4cc23)cc1` came in with an absorption maximum (in ClCCl) of 615 nm.
As for `F[B-]1(F)n2c(c3cccc4cccc2c43)=Nc2cccc[n+]21`, the absorption maximum (in C1CCOC1) was determined as 468 nm; the absorption maximum (in CC#N) was determined as 460 nm; the absorption maximum (in CCCCCC) is listed as 473 nm; the absorption maximum (in Cc1ccccc1) came out at 472 nm; the absorption maximum (in ClCCl) is given as 438 nm.
Compound `CCn1c(-c2ccc(-c3ccc(-c4ccc(-c5n(CC)c6ccccc6[n+]5CC)cc4)cc3)cc2)[n+](CC)c2ccccc21` registered an absorption maximum (in O) of 305 nm.
For the compound `CC(C)(C)c1ccc2oc3nc4oc5cc(-n6c7ccccc7c7ccccc76)ccc5c4cc3c2c1`, the absorption maximum (in ClC(Cl)Cl) is on record as 347 nm.
Regarding `CCCCC1(CCCC)c2cc(C#Cc3ccc4ccc5cccc6ccc3c4c56)ccc2-c2ccc(C#Cc3ccc4ccc5cccc6ccc3c4c56)cc21`, the absorption maximum reads like this: (in C1CCCCC1) 418 nm; (in C1CCOC1) 421 nm; (in CC#N) 420 nm; (in CCOC(C)=O) 419 nm; (in CN(C)C=O) 427 nm; (in Cc1ccccc1) 424 nm. The absorption maximum worked out at 421 nm (in ClC(Cl)Cl) and 424 nm (in ClCCl).
Turning to `CCCCCN1c2ccccc2Sc2cc(/C=C/c3ccc(/C=C(\C#N)C(=O)O)s3)ccc21`, the absorption maximum (in ClCCl) is given as 494 nm.
Same read-out and setting: to `C(=C\c1cnccn1)/c1ccc(N(c2ccccc2)c2ccc(/C=C/c3cnccn3)cc2)cc1` belongs 420 nm.
For `CC/[NH+]=c1\cc2oc3cc(NCCC(=O)NC(C(=O)OC)c4ccccc4)c4ccccc4c3nc-2cc1C` (configuration not stated), the absorption maximum was determined as 580 nm (in CCO) and 590 nm (in O).
In turn, `CCOC(=O)/N=c1/oc2c(OC)cccc2cc1C#N` returned an absorption maximum (in ClCCl) of 374 nm.
Consider `CCCCCOc1cc2oc(=O)c3c4ccc(C#N)cc4c4ccc5cccc6c(c1)c2c3c4c56`, for which, under “in C1CCOC1”, the absorption maximum is 426 nm.
Where the note is “in ClC(Cl)Cl”, `CCCCCCc1sc(CCCCCC)c2c3ccsc3c3sccc3c12` had an absorption maximum of 383 nm.
For `Oc1ccccc1/C=N/CC/N=C/c1ccccc1O`, for the setting “in CC#N”, the absorption maximum came to 396 nm.
Regarding `Cc1ccc(C2=C(/C=C/C(=O)OC3CC[C@@]4(C)C(=CC[C@H]5[C@@H]6CC[C@H]([C@H](C)CCCC(C)C)[C@@]6(C)CC[C@@H]54)C3)C(c3ccc(C)cc3)=[N+]3C2=Nc2c(-c4ccc(C)cc4)c(Br)c(-c4ccc(C)cc4)n2[B-]3(F)F)cc1` (some centres not stated), the absorption maximum (in ClC(Cl)Cl) came to 662 nm.
With `CCCCN1C(=S)c2cccc3c(OC)ccc(c23)C1=S`, the absorption maximum is, setting by setting: (in CC#N) 476 nm; (in CS(C)=O) 483 nm; (in Cc1ccccc1) 468 nm.
Consider `CC(C)(C)c1ccc2c(c1)c1cc(C(C)(C)C)ccc1n2-c1cc(C(=O)c2cccnc2)cc(-n2c3ccc(C(C)(C)C)cc3c3cc(C(C)(C)C)ccc32)c1`, for which the absorption maximum (in Cc1ccccc1) was determined as 381 nm.
Under “in ClCCl”, `CN(C)c1ccc(C#Cc2cc(C#Cc3ccc(N(C)C)cc3)c3ccc4c(C#Cc5ccc(C(F)(F)F)cc5)cc(C#Cc5ccc(N(C)C)cc5)c5ccc2c3c54)cc1` showed an absorption maximum of 506 nm.
`N#Cc1ccc(-n2c(-c3ccc(-c4ccc(-c5nc6c7ccccc7c7ccccc7c6n5-c5ccc(C#N)c6ccccc56)c5ccccc45)c4ccccc34)nc3c4ccccc4c4ccccc4c32)c2ccccc12`: the absorption maximum (in ClCCl) was 336 nm.
Turning to `O=S1(=O)C(c2cccs2)=C(c2cccs2)c2ccccc21`, for the setting “in C1CCOC1”, the absorption maximum was 372 nm.
Take `COc1ccc(C#Cc2ccc(C#Cc3ccc(P(=O)(c4ccc(C#Cc5ccc(C#Cc6ccc(OC)cc6)cc5)cc4)c4ccc(C#Cc5ccc(C#Cc6ccc(OC)cc6)cc5)cc4)cc3)cc2)cc1`: the absorption maximum was 335 nm (in C1CCCCC1); 336 nm (in C1COCCO1); 334 nm (in CC#N); 336 nm (in CCO); 338 nm (in CS(C)=O); 338 nm (in ClC(Cl)Cl). The same compound had an absorption maximum (in ClCCl) of 338 nm.
Regarding `COc1ccc(N2c3c(sc4ccccc34)Sc3sc4ccccc4c32)cc1`, the absorption maximum (in ClCCl) came out at 309 nm.
Same read-out and setting: the result for `C(=C\c1ccncn1)/c1ccc(N(c2ccccc2)c2ccc(/C=C/c3ccncn3)cc2)cc1` reads 422 nm; that for `CC(C)c1cccc(C(C)C)c1N1C(=O)c2cccc3c(Oc4ccc(C(C)(C)c5ccccc5)cc4)ccc(c23)C1=O`, 365 nm.
`CCn1c2ccccc2c2cc3c(cc21)c1ccccc1n3CC` yielded an absorption maximum (in ClC(Cl)Cl) of 419 nm.
On to `O=S(=O)(c1ccc(N2c3ccccc3[Si](c3ccccc3)(c3ccccc3)c3ccccc32)cc1)c1ccc(N2c3ccccc3[Si](c3ccccc3)(c3ccccc3)c3ccccc32)cc1`, for which the absorption maximum (in Cc1ccccc1) is recorded as 328 nm.
